Data reported in PMC4253628, “Antiviral effects against EV71 of pimprinine and its derivatives isolated from Streptomyces sp” (Virology Journal, 2014).

What was measured:
[1] = Cytotoxicity, ATPLite luminescence-based assay, MDCK cells; type: cell-based, canine; conditions: dog
From the text: (§1) The ATPLite assay may be more sensitive to cytotoxicity than the MTT method. For RD and Hep-2 cells, similar results were obtained, and for HeLa and MDCK cells, the values of CC50 from the ATPLite assay were smaller than those from MTT assays (Tables 1, 2 and 3).

EV71 [2] = assay: Progeny virus yield reduction, EV71 in RD cells; type: cell-based, Enterovirus 71
H1N1 [3] = assay: Inhibition of H1N1-induced CPE in MDCK cells; type: cell-based, influenza virus A/human/Hubei/86/2009 (H1N1); conditions: MDCK cells
[4] = Cytotoxicity, MTT method, uninfected RD cells; type: cell-based; conditions: human; RD cells, MTT, 48 h; mean ± SD of three experiments; read-out: CC50, compound concentration required to reduce cell viability by 50%
Description: (§2) The 50% cell cytotoxic concentrations (CC50s) of compounds were calculated using SPSS software. SI were calculated from the ratio of CC50: EC50.

[5] = Cytotoxicity, ATPLite luminescence-based assay, RD cells; type: cell-based; conditions: human
From the text: as §1

HSV-1 [6] = assay: Plaque reduction assay, HSV-1 in Hep-2 cells
Description: Confluent monolayers of Hep-2 cells, seeded in a 24-well plate, were infected with HSV-1 at a density of 60–80 plaque-forming units (PFU) per well and treated with media (pre-warmed DMEM containing 2% FBS, 0.8% low-melting agarose) mixed with or without the serially diluted tested compounds for the periods indicated following different procedures. The cells were incubated at 37°C until plaques appeared, followed by fixing with 10% formaldehyde and staining with 0.5% crystal violet. The plaques were counted by visual examination. The ratio of the number of plaques in the treated group to that in the untreated control was calculated.
A plaque reduction assay was performed to measure the inhibitory effects of the test compounds against HSV-1 infection.

H1N1 [7] = assay: Virus yield reduction assay, H1N1; type: cell-based, influenza virus A/human/Hubei/86/2009 (H1N1); conditions: MDCK cells; — = less than 90% inhibition
Description: Virus yield reduction assays were also carried out to evaluate further the protective effects of the tested compounds.
The virus suspension, serially diluted 10-fold with DMEM containing 2% FBS, was inoculated to cells in a 96-well plate. After 1 h incubation at 37°C in 5% CO2, unbinding virus was washed out and DMEM maintenance medium supplemented with 2% FBS was added to the cells. After 2 days, the infected cells were monitored for cytopathic effects (CPEs). The virus titer was calculated by the Reed–Muench method.

[8] = Cytotoxicity, MTT method, MDCK cells; type: cell-based, canine; conditions: dog, uninfected MDCK cells, host cells of H1N1: MDCK
Description: as §2

[9] = Cytotoxicity, ATPLite luminescence-based assay, HeLa cells; type: cell-based; conditions: human
From the text: as §1

[10] = Cytotoxicity, ATPLite luminescence-based assay, Hep-2 cells; type: cell-based; conditions: human
From the text: as §1

EV71 [11] = assay: microbe, parasite or virus in culture; conditions: Enterovirus A, EV71, RD, 48 h, read-out: EC50, compound concentration required to achieve 50% protection from virus-induced cytopathogenicity
Description: (§3) Cell viability was assessed by an MTT assay, which functions based on the reduction of a MTT into formazan dye by active mitochondria. The cells were treated with 100 μL of MTT (1 mg/mL, Sigma) and incubated at 37°C for 4 h. The reaction was blocked by DMSO and measured in a microplate reader (Bio-Tek Instruments) at 492 nm. The untreated control was arbitrarily set as 100%.
(§4) Confluent cell monolayers in 96-well dishes were infected with 100 TCID50 of corresponding virus dilution mixed with serial dilutions of tested compounds for 1 h at 37°C. Inocula were aspirated and the cells were then incubated with various concentrations of DMEM/tested compounds at 37°C, 5% CO2 for 48 h. CPE were observed microscopically and the viability of the cells was determined using MTT assays. […] The concentrations required for the tested compounds to achieve 50% protection of cells from virus-induced CPE were determined.

EV71 [12] = assay: Dependence of anti-EV71 activity on virus inoculum (cell viability, MTT) in RD cells; type: cell-based, Enterovirus 71
ADV-7 [13] = assay: Inhibition of ADV-7-induced CPE in HeLa cells
Description: as §3, §4

EV71 [14] = conditions: EV71, RD cells
Description: as §3, §4

[15] = Cytotoxicity, MTT method, HeLa cells; type: cell-based; conditions: human, uninfected HeLa cells; host cells of ADV-7: HeLa, MTT, 48 h; read-out: CC50 (ADV-7)
Description: as §2

CVB3 [16] = assay: Virus yield reduction assay, CVB3; type: cell-based, Coxsackievirus B3; conditions: Hep-2 cells; — = less than 90% inhibition
ADV-7 [17] = assay: Virus yield reduction assay, ADV-7; type: cell-based, adenovirus 7; conditions: Human mastadenovirus B; HeLa cells; read-out: EC90 ADV-7, concentration required to inhibit 90% virus yield
CVB3 [18] = assay: Inhibition of CVB3-induced CPE in Hep-2 cells
Description: as §3, §4

[19] = parameters: method as in PMID 11377760; conditions: in vivo, 80 mg/kg; cited from earlier work
HSV-1 [20] = assay: Virus yield reduction assay, HSV-1; type: cell-based, herpes simplex virus 1; conditions: Hep-2 cells; — = less than 90% inhibition
[21] = Cytotoxicity, MTT method, Hep-2 cells; type: cell-based; conditions: human, uninfected Hep-2 cells; host cells of CVB3: Hep-2, MTT, 48 h; read-out: CC50 (CVB3)
Description: as §2

**Q.** With `Cc1ncc(-c2c[nH]c3ccccc23)o1` [Pimprinine, 5, 30-indolyl-2-methyloxazole] as the molecule, how does the CC50 [1] read?
**A.** 649 ± 77 µM

**Q.** And the “reduction in progeny virus titers relative to virus control” value (EV71 [2]; 80 μM, 100 TCID50 EV71, RD cells, 10 h)?
**A.** approximately 0.5 log

**Q.** What about the EC90 (EV71 [2]; Enterovirus A, EV71, RD cells, progeny viral yield, read-out: EC90, compound concentration required to achieve 90% virus yield reduction) of the same molecule?
**A.** 149 ± 12 µM

**Q.** And the “inhibition of H1N1 infection” value (H1N1 [3])?
**A.** negligible measurable inhibition

**Q.** And the “EC50 H1N1” value (H1N1 [3]; 100 TCID50, 48 h, CPE, — = less than 50% inhibition)?
**A.** — (—, less than 50% or 90% inhibition)

**Q.** What about the CC50 at 48 h [4] of the same molecule?
**A.** 1460 ± 27 µM

**Q.** And the CC50 [5]?
**A.** 1260 ± 247 µM

**Q.** And the “SI HSV-1, ratio CC50/EC50” value (HSV-1 [6]; Hep-2 cells)?
**A.** 3

**Q.** What about the EC50 (HSV-1 [6]; Human alphaherpesvirus 1, HEp-2, read-out: EC50 HSV-1) of the same molecule?
**A.** 160 ± 18 µM

**Q.** And the “EC90 H1N1, concentration required to inhibit 90% virus yield” value (H1N1 [7])?
**A.** — (—, less than 50% or 90% inhibition)

**Q.** What about the CC50 at 48 h [8] of the same molecule?
**A.** 899 ± 56 µM

**Q.** And the CC50 [9]?
**A.** 940 ± 219 µM

**Q.** What about the CC50 [10] of the same molecule?
**A.** 403 ± 53 µM

**Q.** And the EC50 (EV71 [11])?
**A.** 89 ± 18 µM

**Q.** And the viability at 10 µM (EV71 [12]; Enterovirus A, 10 μM, 10^4 TCID50 EV71, 48 h pi)?
**A.** 7%

**Q.** What about the viability at 20 µM (EV71 [12]; Enterovirus A, 20 μM, 10^4 TCID50 EV71, 48 h pi) of the same molecule?
**A.** 19%

**Q.** What about the viability at 40 µM (EV71 [12]; Enterovirus A, 40 μM, 10^4 TCID50 EV71, 48 h pi) of the same molecule?
**A.** 16%

**Q.** And the viability at 80 µM (EV71 [12]; Enterovirus A, 80 μM, 10^4 TCID50 EV71, 48 h pi)?
**A.** 22%

**Q.** What about the viability at 160 µM (EV71 [12]; Enterovirus A, 160 μM, 10^4 TCID50 EV71, 48 h pi) of the same molecule?
**A.** 28%

**Q.** And the “anti-EV71 inhibition at excessive virus inoculum” value (EV71 [12]; virus concentration above 10^4 TCID50)?
**A.** no inhibition observed

**Q.** What about the “SI ADV-7, ratio CC50/EC50” value (ADV-7 [13]; HeLa cells) of the same molecule?
**A.** 8

**Q.** What about the EC50 (ADV-7 [13]; Human mastadenovirus B, HeLa, 48 h, read-out: EC50 ADV-7) of the same molecule?
**A.** 150 ± 10 µM

**Q.** What about the “SI (selectivity index), ratio CC50/EC50” value (EV71 [14]) of the same molecule?
**A.** 16

**Q.** And the CC50 at 48 h [15]?
**A.** 1140 ± 181 µM

**Q.** What about the “EC90 CVB3, concentration required to inhibit 90% virus yield” value (CVB3 [16]) of the same molecule?
**A.** —^f (—, less than 50% or 90% inhibition)

**Q.** And the EC90 (ADV-7 [17])?
**A.** 266 ± 14 µM

**Q.** What about the EC50 (CVB3 [18]; Enterovirus B, CVB3, HEp-2, 48 h, read-out: EC50 CVB3) of the same molecule?
**A.** 95 ± 16 µM

**Q.** And the “SI CVB3, ratio CC50/EC50” value (CVB3 [18]; Hep-2 cells)?
**A.** 5

**Q.** And the “protection against electrically induced convulsions” value [19]?
**A.** significant protection

**Q.** What about the “EC90 HSV-1, concentration required to inhibit 90% virus yield” value (HSV-1 [20]) of the same molecule?
**A.** — (—, less than 50% or 90% inhibition)

**Q.** And the CC50 at 48 h [21]?
**A.** 443 ± 35 µM
